In ChEMBL document CHEMBL4270495, “Oleanane-, ursane-, and quinone methide friedelane-type triterpenoid derivatives: Recent advances in cancer treatment” (Eur J Med Chem, 2017):

Legend:
RAW264.7 = assay: Anti-inflammatory activity in mouse RAW264.7 cells assessed as inhibition of nitric oxide production; format: functional, cell-based
HeLa [1] = assay: Cytotoxicity in human HeLa cells assessed as reduction in cell viability incubated for 24 hrs by MTT assay; format: functional, cell-based
[2] = Cytotoxicity in human HELF cells assessed as reduction in cell viability incubated for 24 hrs by MTT assay; format: cell-based
AGS = assay: Cytotoxicity in human AGS cells assessed as reduction in cell viability incubated for 24 hrs by MTT assay; format: functional, cell-based
HepG2 [3] = assay: Cytotoxicity in human HepG2 cells assessed as reduction in cell viability incubated for 24 hrs by MTT assay; format: functional, cell-based; settings: HepG2, 24 h
HT-29 [4] = assay: Cytotoxicity in human HT-29 cells assessed as reduction in cell viability incubated for 72 hrs by MTT assay; format: functional, cell-based; settings: HT-29, 72 h
H9c2 = assay: Cytotoxicity in rat H9c2 cells assessed as reduction in cell viability incubated for 72 hrs by MTT assay; format: cell-based; settings: H9c2, 72 h
HepG2 [5] = assay: Cytotoxicity in human HepG2 cells assessed as reduction in cell viability incubated for 72 hrs by MTT assay; format: functional, cell-based; settings: HepG2, 72 h
MDCK = assay: Cytotoxicity in canine MDCK cells assessed as reduction in cell viability incubated for 72 hrs by MTT assay; format: cell-based; settings: Canis lupus familiaris
HeLa [6] = assay: Cytotoxicity in human HeLa cells assessed as reduction in cell viability incubated for 72 hrs by MTT assay; format: functional, cell-based
EA.hy 926 = assay: Cytotoxicity in human EAhy926 cells assessed as reduction in cell viability incubated for 72 hrs by MTT assay; format: cell-based; settings: EA.hy 926, 72 h
TERT-RPE1 = assay: Cytotoxicity in human hTERT-RPE1 cells assessed as reduction in cell viability incubated for 24 hrs by MTT assay; format: functional, cell-based; settings: RPE-1, 24 h
HT-29 [7] = assay: Cytotoxicity in human HT-29 cells assessed as reduction in cell viability incubated for 96 hrs by SRB assay; format: functional, cell-based; settings: HT-29, 96 h
CT26 = assay: Cytotoxicity in mouse CT26 cells assessed as reduction in cell viability incubated for 96 hrs by SRB assay; format: functional, cell-based; settings: CT26, 96 h
MDA-MB-231 [8] = assay: Cytotoxicity in human MDA-MB-231 cells assessed as reduction in cell viability incubated for 96 hrs by SRB assay; format: functional, cell-based; settings: MDA-MB-231, 96 h
MDA-MB-231 [9] = assay: Cytotoxicity in human MDA-MB-231 cells assessed as reduction in cell viability incubated for 24 hrs by MTT assay; format: functional, cell-based; settings: MDA-MB-231, 24 h
HCT-116 = assay: Cytotoxicity in human HCT116 cells assessed as reduction in cell viability incubated for 96 hrs by SRB assay; format: functional, cell-based; settings: HCT-116, 96 h
DU-145 = assay: Cytotoxicity in human DU145 cells assessed as reduction in cell viability incubated for 96 hrs by SRB assay; format: functional, cell-based; settings: DU-145, 96 h
MCF7 = assay: Cytotoxicity in human MCF7 cells assessed as reduction in cell viability incubated for 24 hrs by MTT assay; format: functional, cell-based; settings: MCF7, 24 h
4T1 = assay: Cytotoxicity in mouse 4T1 cells assessed as reduction in cell viability incubated for 96 hrs by SRB assay; format: functional, cell-based; settings: 4T1, 96 h
HCT-8 = assay: Cytotoxicity in human HCT8 cells assessed as reduction in cell viability incubated for 96 hrs by SRB assay; format: functional, cell-based; settings: HCT-8, 96 h
PC-3 = assay: Cytotoxicity in human PC3 cells assessed as reduction in cell viability incubated for 96 hrs by SRB assay; format: functional, cell-based; settings: PC-3, 96 h
Bel-7402 = assay: Cytotoxicity in human Bel7402 cells assessed as reduction in cell viability incubated for 72 hrs by MTT assay; format: functional, cell-based; settings: Bel-7402, 72 h
H4 = assay: Cytotoxicity in human H4 cells assessed as reduction in cell viability incubated for 72 hrs by MTT assay; format: functional, cell-based; settings: H4, 72 h

CC1(C)CC[C@]2(C(=O)n3ccnc3)CC[C@]3(C)[C@H](C(=O)C=C4[C@@]5(C)C=C(C#N)C(=O)C(C)(C)[C@@H]5CC[C@]43C)[C@@H]2C1
IC50 (RAW264.7): 1 µM

CC(=O)O[C@H]1CC[C@]2(C)[C@H]3CC=C4[C@@H]5[C@@H](C)[C@H](C)CC[C@]5(C(=O)NCCN)CC[C@@]4(C)[C@]3(C)CC[C@H]2C1(C)C
IC50 (HeLa [1]): 4.4 µM | IC50 [2]: 18.1 µM | IC50 (AGS): 14.5 µM | IC50 (HepG2 [3]): 16.3 µM

C[C@H]1[C@H](C)CC[C@]2(C(=O)NCCN)CC[C@]3(C)C(=CC[C@@H]4[C@@]5(C)CC[C@H](O)C(C)(C)[C@@H]5CC[C@]43C)[C@H]12
IC50 (HeLa [1]): 14.6 µM | IC50 [2]: 15.4 µM | IC50 (AGS): 17.7 µM | IC50 (HepG2 [3]): 13.9 µM

COC(=O)[C@]12CC[C@@H](C)[C@H](C)[C@H]1C1=CC[C@@H]3[C@@]4(C)C=C(C#N)C(=O)C(C)(C)[C@@H]4CC[C@@]3(C)[C@]1(C)CC2
IC50 (RAW264.7): 17 µM

CC(=O)O[C@H]1CC[C@]2(C)[C@H]3CC=C4[C@@H]5[C@@H](C)[C@H](C)CC[C@]5(C(=O)NCCCCN)CC[C@@]4(C)[C@]3(C)CC[C@H]2C1(C)C
IC50 (HeLa [1]): 4.2 µM | IC50 [2]: 25.1 µM | IC50 (AGS): 14.1 µM | IC50 (HepG2 [3]): 16 µM

COc1ccccc1/C=C/C(=O)O[C@H]1CC[C@]2(C)[C@H]3C(=O)C=C4[C@H]5C[C@@](C)(C(=O)O)CC[C@]5(C)CC[C@@]4(C)[C@]3(C)CC[C@H]2C1(C)C
IC50 (HT-29 [4]): 22.2 µM | IC50 (H9c2): > 50 µM | IC50 (HepG2 [5]): 32 µM | IC50 (MDCK): 22.9 µM | IC50 (HeLa [6]): 24.6 µM | IC50 (EA.hy 926): > 50 µM

COc1cccc(/C=C/C(=O)O[C@H]2CC[C@]3(C)[C@H]4C(=O)C=C5[C@H]6C[C@@](C)(C(=O)O)CC[C@]6(C)CC[C@@]5(C)[C@]4(C)CC[C@H]3C2(C)C)c1
IC50 (HT-29 [4]): 14.9 µM | IC50 (H9c2): > 50 µM | IC50 (HepG2 [5]): 12.7 µM | IC50 (MDCK): 22.2 µM | IC50 (HeLa [6]): 17.5 µM | IC50 (EA.hy 926): 31 µM

CC1(C)[C@@H](OC(=O)/C=C/c2ccccc2)CC[C@]2(C)[C@H]3C(=O)C=C4[C@H]5C[C@@](C)(C(=O)O)CC[C@]5(C)CC[C@@]4(C)[C@]3(C)CC[C@@H]12
IC50 (HT-29 [4]): 22.3 µM | IC50 (H9c2): 46.1 µM | IC50 (HepG2 [5]): 24.4 µM | IC50 (MDCK): 22.6 µM | IC50 (HeLa [6]): 23.7 µM | IC50 (EA.hy 926): 28.9 µM

C[C@H]1[C@H](C)CC[C@]2(C(=O)NCCCCCCN)CC[C@]3(C)C(=CC[C@@H]4[C@@]5(C)CC[C@H](O)C(C)(C)[C@@H]5CC[C@]43C)[C@H]12
IC50 (HeLa [1]): 13.3 µM | IC50 [2]: 12.4 µM | IC50 (AGS): 16.6 µM | IC50 (HepG2 [3]): 13.4 µM

C[C@H]1[C@H](C)CC[C@]2(C#N)CC[C@]3(C)C(=CC[C@@H]4[C@@]5(C)C=C(C#N)C(=O)C(C)(C)[C@@H]5CC[C@]43C)[C@H]12
IC50 (RAW264.7): 1 to 7 µM

CC(=O)O[C@H]1CC[C@]2(C)[C@H]3CC=C4[C@@H]5[C@@H](C)[C@H](C)CC[C@]5(C(=O)NCCCCCCN)CC[C@@]4(C)[C@]3(C)CC[C@H]2C1(C)C
IC50 (HeLa [1]): 3.8 µM | IC50 [2]: 14.9 µM | IC50 (AGS): 12.8 µM | IC50 (HepG2 [3]): 7.2 µM

Cc1ccc(/C=C/C(=O)O[C@H]2CC[C@]3(C)[C@H]4C(=O)C=C5[C@H]6C[C@@](C)(C(=O)O)CC[C@]6(C)CC[C@@]5(C)[C@]4(C)CC[C@H]3C2(C)C)cc1
IC50 (HT-29 [4]): 21.7 µM | IC50 (H9c2): > 50 µM | IC50 (HepG2 [5]): 22.1 µM | IC50 (MDCK): 38 µM | IC50 (HeLa [6]): 14.2 µM | IC50 (EA.hy 926): 27.6 µM

C[C@H]1[C@H](C)CC[C@@]23CC[C@@]4(C)[C@]5(C)CC[C@H]6C(C)(C)C(=O)C(C#N)=C[C@]6(C)C5=CC(=O)[C@]4(OC2=O)[C@H]13
IC50 (RAW264.7): 8 µM

C[C@H]1[C@H](C)CC[C@]2(C(=O)n3ccnc3)CC[C@]3(C)C(=CC[C@@H]4[C@@]5(C)C=C(C#N)C(=O)C(C)(C)[C@@H]5CC[C@]43C)[C@H]12
IC50 (RAW264.7): 5 µM

C[C@H]1[C@H](C)CC[C@]2(C(=O)NCCCCN)CC[C@]3(C)C(=CC[C@@H]4[C@@]5(C)CC[C@H](O)C(C)(C)[C@@H]5CC[C@]43C)[C@H]12
IC50 (HeLa [1]): 14.5 µM | IC50 [2]: 15 µM | IC50 (AGS): 17.5 µM | IC50 (HepG2 [3]): 14.4 µM

CC1(C)[C@@H](O)CC[C@]2(C)[C@H]3C(=O)C=C4[C@H]5C[C@@](C)(C(=O)O)CC[C@]5(C)CC[C@@]4(C)[C@]3(C)CC[C@@H]12
IC50 (TERT-RPE1): 63.4 µM | IC50 (HT-29 [7]): 77.2 µM | IC50 (CT26): 70.5 µM | IC50 (HT-29 [4]): > 50 µM | IC50 (MDA-MB-231 [8]): 101 µM | IC50 (MDA-MB-231 [9]): 84.7 µM | IC50 (HCT-116): 75.1 µM | IC50 (DU-145): 136 µM | IC50 (H9c2): > 100 µM | IC50 (MCF7): 75.7 µM | IC50 (HepG2 [5]): > 50 µM | IC50 (4T1): 96.2 µM | IC50 (MDCK): > 100 µM | IC50 (HeLa [6]): > 50 µM | IC50 (HCT-8): 82.2 µM | IC50 (EA.hy 926): > 100 µM | IC50 (PC-3): 88 µM

Cc1c(O)c(O)cc2c1C(c1c[nH]c3cc(Cl)ccc13)C=C1C2(C)CC[C@@]2(C)[C@H]3C[C@](C)(C(=O)O)CC[C@]3(C)CC[C@]12C (single isomer, unassigned)
IC50 (Bel-7402): 6.53 µM | IC50 (H4): 7.83 µM

COC(=O)[C@]1(C)CC[C@]2(C)CC[C@]3(C)C4=CC(c5c[nH]c6cc(C)ccc56)c5c(cc(OC)c(OC)c5C)C4(C)CC[C@@]3(C)[C@H]2C1 (single isomer, unassigned)
IC50 (Bel-7402): 0.02 µM | IC50 (H4): 7.88 µM

CC(=O)Nc1ccc(SC2C=C3C(C)(CC[C@@]4(C)[C@@H]5C[C@](C)(C(=O)O)CC[C@]5(C)CC[C@]34C)c3cc(OC(C)=O)c(OC(C)=O)c(C)c32)cc1 (single isomer, unassigned)
IC50 (Bel-7402): 0.46 µM | IC50 (H4): 0.35 µM

COC(=O)[C@]1(C)CC[C@]2(C)CC[C@]3(C)C4=CC(c5c[nH]c6ccc(OC)cc56)c5c(cc(OC)c(OC)c5C)C4(C)CC[C@@]3(C)[C@H]2C1 (single isomer, unassigned)
IC50 (Bel-7402): 0.51 µM | IC50 (H4): 4.59 µM

COc1ccc2[nH]cc(C3C=C4C(C)(CC[C@@]5(C)[C@H]6C[C@](C)(C(=O)O)CC[C@]6(C)CC[C@]45C)c4cc(O)c(O)c(C)c43)c2c1 (single isomer, unassigned)
IC50 (Bel-7402): 45.4 µM | IC50 (H4): 24.4 µM

Cc1ccc2c(C3C=C4C(C)(CC[C@@]5(C)[C@H]6C[C@](C)(C(=O)O)CC[C@]6(C)CC[C@]45C)c4cc(O)c(O)c(C)c43)c[nH]c2c1 (single isomer, unassigned)
IC50 (Bel-7402): 5.52 µM | IC50 (H4): 6.66 µM

CC(=O)Oc1cc2c(c(C)c1OC(C)=O)C(Sc1ccc(C)cc1)C=C1C2(C)CC[C@@]2(C)[C@@H]3C[C@](C)(C(=O)O)CC[C@]3(C)CC[C@]12C (single isomer, unassigned)
IC50 (Bel-7402): 0.45 µM | IC50 (H4): 0.37 µM

CC(=O)CC1C=C2C(C)(CC[C@@]3(C)[C@@H]4C[C@](C)(C(=O)O)CC[C@]4(C)CC[C@]23C)c2cc(OC(C)=O)c(OC(C)=O)c(C)c21 (single isomer, unassigned)
IC50 (Bel-7402): > 150 µM | IC50 (H4): > 150 µM

COC(=O)[C@]1(C)CC[C@]2(C)CC[C@]3(C)C4=CC(c5cn(C)c6cc(Cl)ccc56)c5c(cc(OC)c(OC)c5C)C4(C)CC[C@@]3(C)[C@H]2C1 (single isomer, unassigned)
IC50 (Bel-7402): 0.01 µM | IC50 (H4): 2.03 µM
